The structures appear in SMILES notation. Structures can show the parent of a compound that is named as a salt.

The target of the experiment is T1, aldose reductase (Rattus norvegicus, UniProt P07943).
T1 construct: rat lens homogenate used as a source of enzyme; from tissue; host or cells: rat lens homogenate
In words: in vitro inhibition of aldose reductase from rat lens homogenate (DL-glyceraldehyde substrate, NADPH, spectrophotometry at 340 nm). It counts as biochemical. As to conditions: for inhibition at 100 µM: concentration 10^-4 mol/liter; for inhibition at 10 µM: concentration 10^-5 mol/liter; for inhibition at 1 µM: concentration 10^-6 mol/liter; for inhibition at 0.1 µM: concentration 10^-7 mol/liter; for inhibition at 0.01 µM: concentration 10^-8 mol/liter; for IC50: n = average of 3 determinations (Example 132: average of 2 determinations). As for the experimental part:
The inhibitory activity on aldose reductase is evaluated in vitro starting from a rat lens homogenate used as a source of enzyme. The substrate used is DL-glyceraldehyde, which is converted by aldose reductase to glycerol in the presence of NADPH (*). This reaction is followed by spectrophotometry at 340 nm in the absence and in the presence of the inhibitors to be tested, the variation in optical density being proportional to the oxidation of the reduced coenzyme.
The results are shown in Table I below and represent, for different examples, the percentage inhibition of the enzymatic activity, relative to the control activity, as a function of the different concentrations (mol.l^-1) used.

Where [1] appears, read: read-out: Inhibition relative to the control activity, %.

For `O=C(O)CN1C(=O)CSc2ncccc21` [Example 110, Pyrido[2,3-b]thiazin-2(3H)-one-1-acetic acid], under setting [1], the inhibition at 100 µM came out at 95%, the inhibition at 10 µM was determined as 82%, the inhibition at 1 µM worked out at 37% and the inhibition at 0.1 µM came to 11%. Under setting [1], the inhibition at 0.01 µM is 4%. Besides, the inhibition at 0.001 µM (concentration 10^-9 mol/liter, read-out: Inhibition relative to the control activity, %) came out at 9%.

`O=C(O)CN1C(=S)C(c2ccccc2)Sc2ccccc21` (stereo not shown) [Example 130, 2-Phenyl-2H-1,4-benzothiazine-3-thione-4-acetic acid]: under setting [1], the inhibition at 10 µM was determined as 99%, the inhibition at 0.1 µM was 95% and the inhibition at 0.01 µM amounted to 17%.

As for `O=C(O)CN1C(=S)CSc2ccc(F)cc21` [Example 119, 6-Fluoro-2H-1,4-benzothiazine-3-thione-4-acetic acid], the IC50 is 0.046 ± 0.002 µM. In addition, under setting [1], the inhibition at 100 µM came to 100%, the inhibition at 10 µM was 98%, the inhibition at 0.1 µM was 67% and the inhibition at 0.01 µM stood at 22%.

Turning to `O=C(O)CN1C(=S)CSc2cc(Cl)ccc21` [Example 127, 7-Chloro-2H-1,4-benzothiazine-3-thione-4-acetic acid], under setting [1], the inhibition at 10 µM came to 98%, the inhibition at 0.1 µM amounted to 93% and the inhibition at 0.01 µM was found to be 28%.

In the case of `O=C(O)CN1C(=O)CSc2nc(Cl)ccc21` [Example 111, 6-Chloropyrido[2,3-b]thiazin-2(3H)-one-1-acetic acid], under setting [1], the inhibition at 100 µM amounted to 96%, the inhibition at 10 µM was found to be 80% and the inhibition at 0.1 µM is 5%.

Regarding `O=C(O)CN1C(=S)COc2ccc(F)cc21` [Example 152, 6-Fluoro-2H-1,4-benzoxazine-3-thione-4-acetic acid], the IC50 is 0.086 ± 0.004 µM. For the same compound, under setting [1], the inhibition at 100 µM turned out to be 100%, the inhibition at 10 µM was 99% and the inhibition at 0.1 µM was 54%.

Take `O=C(O)CN1C(=S)CSc2ccccc21` [Example 133, 2H-1,4-Benzothiazine-3-thione-4-acetic acid]: inhibition was half-maximal at 0.054 ± 0.005 µM (IC50). Moreover, under setting [1], the inhibition at 10 µM was 98%, the inhibition at 0.1 µM is 69% and the inhibition at 0.01 µM stood at 18%.

`CC1Sc2ccccc2N(CC(=O)O)C1=S` (stereo not shown) [Example 132, 2-Methyl-2H-1,4-benzothiazine-3-thione-4-acetic acid] returned an IC50 of 0.042 ± 0.013 µM. Also, under setting [1], the inhibition at 10 µM turned out to be 95%, the inhibition at 0.1 µM came out at 92% and the inhibition at 0.01 µM is 16%.

For `O=C(O)CN1C(=O)CNc2ncccc21` [Example 114, Pyrido[2,3-b][1,4]pyrazin-2(3H)-one-1-acetic acid hydrochloride], under setting [1], the inhibition at 100 µM stood at 95%, the inhibition at 10 µM was determined as 86% and the inhibition at 1 µM came out at 6%.

On to `CC1Sc2ccc(F)cc2N(CC(=O)O)C1=O` (stereo not shown) [Example 136, 6-Fluoro-2-methyl-2H-1,4-benzothiazin-3-one-4-acetic acid], for which, under setting [1], the inhibition at 10 µM is 95%, the inhibition at 0.1 µM was found to be 30% and the inhibition at 0.01 µM is 11%.

For `O=C(O)CN1C(=O)CSc2cc(F)ccc21` [Example 116, 7-Fluoro-2H-1,4-benzothiazin-3-one-4-acetic acid], under setting [1], the inhibition at 100 µM is 100%, the inhibition at 10 µM came out at 95% and the inhibition at 1 µM was found to be 25%.

For `O=C(O)CN1C(=O)CSc2ccccc21` [Example 124, 2H-1,4-Benzothiazin-3-one-4-acetic acid], under setting [1], the inhibition at 100 µM turned out to be 97%, the inhibition at 10 µM is 86% and the inhibition at 0.1 µM was 10%.

`O=C(O)CN1C(=S)CCc2cc(Cl)ccc21` [Example 154, 6-Chloro-3,4-dihydroquinoline-2-thione-1-acetic acid] gave an IC50 of 0.091 ± 0.015 µM. Also, under setting [1], the inhibition at 10 µM worked out at 94%, the inhibition at 0.1 µM amounted to 56% and the inhibition at 0.01 µM was 29%.

Turning to `CC1(c2ccccn2)Sc2ccccc2N(CC(=O)O)C1=O` (stereo not shown) [Example 151, 2-Methyl-2-(pyridin-2'-yl)-2H-1,4-benzothiazin-3-one-4-acetic acid], under setting [1], the inhibition at 100 µM came to 96%, the inhibition at 10 µM worked out at 73% and the inhibition at 0.1 µM was found to be 16%.

With `CC1Sc2ccc(F)cc2N(CC(=O)O)C1=S` (stereo not shown) [Example 137, 6-Fluoro-2-methyl-2H-1,4-benzothiazine-3-thione-4-acetic acid], under setting [1], the inhibition at 10 µM turned out to be 94%, the inhibition at 0.1 µM is 80% and the inhibition at 0.01 µM stood at 13%.

`O=C(O)CN1C(=O)CSc2ccc(F)cc21` [Example 118, 6-Fluoro-2H-1,4-benzothiazin-3-one-4-acetic acid]: under setting [1], the inhibition at 100 µM came out at 98%, the inhibition at 10 µM came out at 91% and the inhibition at 1 µM was found to be 10%.

Take `O=C(O)CN1C(=O)CSc2cc(Cl)c(C(F)(F)F)cc21` [Example 123, 6-Trifluoromethyl-7-chloro-2H-1,4-benzothiazin-3-one-4-acetic acid]: under setting [1], the inhibition at 100 µM amounted to 97%, the inhibition at 10 µM came to 81% and the inhibition at 0.1 µM worked out at 0%.

As for `O=C(O)CN1C(=S)CSc2cc(Cl)c(C(F)(F)F)cc21` [Example 129, 6-Trifluoromethyl-7-chloro-2H-1,4-benzothiazine-3-thione-4-acetic acid], under setting [1], the inhibition at 10 µM came to 74% and the inhibition at 0.01 µM stood at 5%.

As to `O=C(O)CN1C(=O)CSc2cc(Cl)ccc21` [Example 121, 7-Chloro-2H-1,4-benzothiazin-3-one-4-acetic acid], under setting [1], the inhibition at 100 µM is 97%, the inhibition at 10 µM is 92% and the inhibition at 0.1 µM amounted to 16%.

With `O=C(O)CN1C(=O)CSc2ccc(C(F)(F)F)cc21` [Example 115, 6-Trifluoromethyl-2H-1,4-benzothiazin-3-one-4-acetic acid], under setting [1], the inhibition at 100 µM came out at 90%, the inhibition at 10 µM is 57% and the inhibition at 0.1 µM amounted to 3%.

As to `O=C(O)CN1C(=S)CSc2cc(F)ccc21` [Example 117, 7-Fluoro-2H-1,4-benzothiazine-3-thione-4-acetic acid], the IC50 was determined as 0.082 ± 0.001 µM. Under setting [1], the inhibition at 100 µM is 100%, the inhibition at 10 µM stood at 100%, the inhibition at 0.1 µM was 65% and the inhibition at 0.01 µM was 5%.

Turning to `CC1Sc2ccccc2N(CC(=O)O)C1=O` (stereo not shown) [Example 125, 2-Methyl-2H-1,4-benzothiazin-3-one-4-acetic acid], under setting [1], the inhibition at 100 µM was 99%, the inhibition at 10 µM was 91% and the inhibition at 0.1 µM was determined as 12%.

One may read the inhibition as the relative decrease from the control value, in per cent. For orientation: IC50 means the concentration that gives 50% inhibition. A low value points to inhibition by little substance.

Values taken from US4755509A, “Heterocyclic aldose reductase inhibitors and methods of using them” (Carbipem, priority 1984, dated 1988).
